Patent US20090042188A1, “Agent for Differentiating Hematopoietic Stem Cell Into Natural Killer Cell Comprising Vdup1 Protein or Gene Encoding the Same, and a Method of Differentiating Hematopoietic Stem Cell Into Natural Killer Cell Using Thereof” (Korea Research Institute of Bioscience and Biotechnology, priority 2005, published 2009)

Tests used:
Yac-1 = assay: 51Cr release assay of NK cells differentiated in vitro under vitamin D3; type: cell-based, mouse; conditions: 10 nM vitamin D3 during differentiation, compared with vitamin D3 non-treating group (FIG. 16)
Method: FIG. 16 is a graph showing the cytotoxicity, investigated by ^51Cr release assay, of NK cells for a target cell ‘Yac-1’ developed under the treatment of low concentration of vitamin D3 (10 nM). E/T means the ratio of effective cells to target cells.
(§1) NK cells, differentiated in vitro or isolated from spleen, were treated with IL-2 (10 u/ml), followed by culture for 24 hours. After being washed, NK cells were plated, according to ratios of effector cells to target cells, into a 96 well plate (well round bottom plate, Falcon, USA) containing target cells (^51Cr-labeled Yac-1 cells, 10^4/well), followed by further culture for 4 hours. Upon completion of the culture, radioactivity of 100 ul of supernatant was measured by γ counter (FIG. 9).
To investigate the effect of vitamin D3, known to regulate VDUP1, on NK cell development, 1,25-dihydroxy vitamin D(3) was treated to each stage of differentiation from mouse HSCs into mNK cells via pNK. The cells were matured by the culture in the presence of OP9 and IL-15, then FACS analysis (FIG. 15) and ^51Cr release assay (FIG. 16) were performed.

mouse HSCs = assay: NK cell differentiation from HSCs under vitamin D3 treatment, FACS analysis of NK1.1-positive cells; type: cell-based; conditions: vitamin D3 treated at each stage HSC to pNK to mNK; culture with OP9 and IL-15; FACS (FIG. 15)
Method: FIG. 15 is a set of graphs showing the result of FACS analysis with NK cell group positive for NK1.1. Vitamin D3 was treated during the whole procedure of differentiation from HSCs of a wild type mouse into mNK via pNK, which was progressed by the cell culture in the presence of OP9 and IL-15, resulting in the confirmation of NK cell group positive for NK1.1.
HSCs isolated from bone marrow in the above Example 1 were inoculated into 6-well plate (Falcon, USA) using a complete RPMI medium supplemented with mouse SCF (30 ng/ ? , BioSource, Camarillo, Calif.), mouse Flt3L (50 ng/ ? , PeproTech, Rocky Hill, N.J.), mouse IL-7 (0.5 ng/ ? , PeproTech), indomethacin (2 g/ ? , Sigma), gentamycin (20 g/ ? ) and 10% fetal bovine serum, at the concentration of 2×10^6 cells/well. The cells were cultured in a 37° C., 5% CO2 incubator for 6 days. […] The purity of the pNK cells was determined by FACS, confirming over 92% purity.
To generate mature NK cells (referred as “mNK cells” hereinafter), collected HSCs were cultured with or without OP9 stromal cells (Science, 265: 1098-1101, 1994) in the presence of mouse IL-15 (20 ng/ ? , PeproTech, USA). […] The purity of the mature NK cells was determined by flow cytometry (FACS) using anti-CD122, NK1.1, DX-5 and NK cell receptor antibodies. […]

mature NK cells = assay: 51Cr release assay of mature spleen NK cells treated with IL-2 and vitamin D3; type: cell-based; conditions: mature NK cells from wild type mouse spleen, vitamin D3 together with IL-2 for 24 hours (FIG. 17)
Method: FIG. 17 is a graph showing the cytotoxicity of mature NK cells, separated from spleen of a wild type mouse, and then treated with IL-2 and/or vitamin D3 for 24 hours, detected by ^51Cr release assay.
as §1
Further, mature NK cells were isolated from spleen of a wild type mouse. The cells were treated with vitamin D3 together with IL-2 for 24 hours, followed by ^51Cr release assay (FIG. 17).

SMILES: C=C1/C(=C\C=C2/CCC[C@]3(C)[C@@H]([C@H](C)CCCC(C)(C)O)CC[C@@H]23)C[C@@H](O)C[C@@H]1O [vitamin D3, 1,25-dihydroxy vitamin D(3)]
- NK mediated cytotoxicity for Yac-1 (Yac-1): increased
- NK cell population (NK1.1 positive) (mouse HSCs): increased by vitamin D3 in a dose dependent manner
- NK mediated cytotoxicity (mature NK cells): increased
